# Measured values reported in the supplement of paper PMC11061612.
# Assays:
# [1] = test system: MDA-MB-175-VII (Breast Carcinoma); experiment: combination Emax (second highest fraction inhibited in the dose matrix, 72 h); higher = more inhibition; extreme values may be limits of the assay
# Method in brief: (§1)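 Bliss excess equals the observed combination effect minus the expected value EA + EB − EA·EB, where EA and EB are the effects of each agent alone. Combination Emax is the second-highest inhibition within the matrix. Inhibition was scaled from CellTiter-Glo 2.0 luminescence, with 0 set by vehicle wells and 1 by blank wells, after 72 hours of two-drug dosing of cells plated in 1536-well plates.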
# [2] = test system: CAL-85-1 (Breast Carcinoma); experiment: as above
# Method in brief: as §1
# [3] = test system: NCI-H1435 (Non-Small Cell Lung Carcinoma); experiment: as above
# Method in brief: as §1
# [4] = test system: RPMI-8402 (T-Lymphoblastic Leukemia); experiment: as above
# Method in brief: as §1
# [5] = test system: SBC-3 (Small Cell Lung Carcinoma); experiment: as above
# Method in brief: as §1
# NCI-H2452 (Mesothelioma) [6] = experiment: as above
# Method in brief: as §1
# [7] = test system: OVKATE (Ovarian Carcinoma); experiment: as above
# Method in brief: as §1
# [8] = test system: SW1463 (Colorectal Carcinoma); experiment: as above
# Method in brief: as §1
# [9] = test system: L-363 (Plasma Cell Myeloma); experiment: as above
# Method in brief: as §1
# SK-MEL-24 (Melanoma) [10] = experiment: as above
# Method in brief: as §1
# [11] = test system: NCI-H2023 (Non-Small Cell Lung Carcinoma); experiment: as above
# Method in brief: as §1
# [12] = test system: MRK-nu-1 (Breast Carcinoma); experiment: as above
# Method in brief: as §1
# [13] = test system: BC-1 (B-Cell Non-Hodgkin's Lymphoma); experiment: as above
# Method in brief: as §1
# GCIY (Gastric Carcinoma) [14] = experiment: as above
# Method in brief: as §1
# [15] = test system: COR-L105 (Lung Adenocarcinoma); experiment: as above
# Method in brief: as §1
# [16] = test system: NCI-H2009 (Lung Adenocarcinoma); experiment: as above
# Method in brief: as §1
# [17] = test system: NTERA-2-cl-D1 (Other Solid Carcinomas); experiment: as above
# Method in brief: as §1
# [18] = test system: KNS-62 (Squamous Cell Lung Carcinoma); experiment: as above
# Method in brief: as §1
# [19] = test system: NCI-H835 (Other Solid Carcinomas); experiment: as above
# Method in brief: as §1
# [20] = test system: NCI-H1648 (Lung Adenocarcinoma); experiment: as above
# Method in brief: as §1
# C32 (Melanoma) [21] = experiment: as above
# Method in brief: as §1
# MG-63 (Osteosarcoma) [22] = experiment: as above
# Method in brief: as §1
# A375 (Melanoma) [23] = experiment: as above
# Method in brief: as §1
# [24] = test system: MDA-MB-175-VII (Breast Carcinoma); experiment: Bliss excess, mean over the matrix (fraction); higher = more synergy
# Method in brief: as §1
# [25] = test system: CAL-85-1 (Breast Carcinoma); experiment: as above
# Method in brief: as §1
# [26] = test system: NCI-H1435 (Non-Small Cell Lung Carcinoma); experiment: as above
# Method in brief: as §1
# [27] = test system: RPMI-8402 (T-Lymphoblastic Leukemia); experiment: as above
# Method in brief: as §1
# [28] = test system: SBC-3 (Small Cell Lung Carcinoma); experiment: as above
# Method in brief: as §1
# NCI-H2452 (Mesothelioma) [29] = experiment: as above
# Method in brief: as §1
# [30] = test system: OVKATE (Ovarian Carcinoma); experiment: as above
# Method in brief: as §1
# [31] = test system: SW1463 (Colorectal Carcinoma); experiment: as above
# Method in brief: as §1
# [32] = test system: L-363 (Plasma Cell Myeloma); experiment: as above
# Method in brief: as §1
# SK-MEL-24 (Melanoma) [33] = experiment: as above
# Method in brief: as §1
# [34] = test system: NCI-H2023 (Non-Small Cell Lung Carcinoma); experiment: as above
# Method in brief: as §1
# [35] = test system: MRK-nu-1 (Breast Carcinoma); experiment: as above
# Method in brief: as §1
# [36] = test system: BC-1 (B-Cell Non-Hodgkin's Lymphoma); experiment: as above
# Method in brief: as §1
# GCIY (Gastric Carcinoma) [37] = experiment: as above
# Method in brief: as §1
# [38] = test system: COR-L105 (Lung Adenocarcinoma); experiment: as above
# Method in brief: as §1
# [39] = test system: NCI-H2009 (Lung Adenocarcinoma); experiment: as above
# Method in brief: as §1
# [40] = test system: NTERA-2-cl-D1 (Other Solid Carcinomas); experiment: as above
# Method in brief: as §1
# [41] = test system: KNS-62 (Squamous Cell Lung Carcinoma); experiment: as above
# Method in brief: as §1
# [42] = test system: NCI-H835 (Other Solid Carcinomas); experiment: as above
# Method in brief: as §1
# [43] = test system: NCI-H1648 (Lung Adenocarcinoma); experiment: as above
# Method in brief: as §1
# C32 (Melanoma) [44] = experiment: as above
# Method in brief: as §1
# MG-63 (Osteosarcoma) [45] = experiment: as above
# Method in brief: as §1
# A375 (Melanoma) [46] = experiment: as above
# Method in brief: as §1
compound,measurement,setting,value
"C[C@@H](Oc1cc(-c2cnn(C3CCNCC3)c2)cnc1N)c1c(Cl)ccc(F)c1Cl [Crizotinib] + CC1=C(C(=CC=C1)Cl)NC(=O)C2=CN=C(S2)NC3=CC(=NC(=N3)C)N4CCN(CC4)CCO [Dasatinib] (first compound max 10 µM, 7x7, partner max 2 µM)",combination Emax,[1],0.0779
same,combination Emax,[2],0.778
same,combination Emax,[3],0.255
same,combination Emax,[4],0.971
same,combination Emax,[5],0.957
same,combination Emax,NCI-H2452 (Mesothelioma) [6],0.744
same,combination Emax,[7],0.572
same,combination Emax,[8],0.133
same,combination Emax,[9],0.632
same,combination Emax,SK-MEL-24 (Melanoma) [10],0.871
same,combination Emax,[11],0.607
same,combination Emax,[12],0.218
same,combination Emax,[13],0.94
same,combination Emax,GCIY (Gastric Carcinoma) [14],0.863
same,combination Emax,[15],0.481
same,combination Emax,[16],0.88
same,combination Emax,[17],0.956
same,combination Emax,[18],0.302
same,combination Emax,[19],0.854
same,combination Emax,[20],0.908
same,combination Emax,C32 (Melanoma) [21],0.425
same,combination Emax,MG-63 (Osteosarcoma) [22],0.949
same,combination Emax,A375 (Melanoma) [23],0.502
same,Bliss excess,[24],-0.0527
same,Bliss excess,[25],0.001
same,Bliss excess,[26],0.0039
same,Bliss excess,[27],0.0006
same,Bliss excess,[28],0.0493
same,Bliss excess,NCI-H2452 (Mesothelioma) [29],0.0069
same,Bliss excess,[30],0.06
same,Bliss excess,[31],-0.0926
same,Bliss excess,[32],0.004
same,Bliss excess,SK-MEL-24 (Melanoma) [33],-0.0523
same,Bliss excess,[34],-0.012
same,Bliss excess,[35],-0.0711
same,Bliss excess,[36],0.0312
same,Bliss excess,GCIY (Gastric Carcinoma) [37],0.0537
same,Bliss excess,[38],-0.0313
same,Bliss excess,[39],0.0662
same,Bliss excess,[40],0.0073
same,Bliss excess,[41],-0.0258
same,Bliss excess,[42],0.0045
same,Bliss excess,[43],0.0331
same,Bliss excess,C32 (Melanoma) [44],-0.0461
same,Bliss excess,MG-63 (Osteosarcoma) [45],0.0498
same,Bliss excess,A375 (Melanoma) [46],-0.0256
"O=C(c1cc(Cc2n[nH]c(=O)c3ccccc23)ccc1F)N1CCN(C(=O)C2CC2)CC1 [Olaparib] + CN(CC[C@H](CSC1=CC=CC=C1)NC2=C(C=C(C=C2)S(=O)(=O)NC(=O)C3=CC=C(C=C3)N4CCC(CC4)[C@H](C5=CC=CC=C5C6=CC=C(C=C6)Cl)O)S(=O)(=O)C(F)(F)F)CCO [AZD4320] (first compound max 10 µM, 7x7, partner max 1 µM)",combination Emax,[1],0.389
same,combination Emax,[2],0.342
same,combination Emax,[3],0.729
same,combination Emax,[4],0.935
same,combination Emax,[5],0.842
same,combination Emax,NCI-H2452 (Mesothelioma) [6],0.182
same,combination Emax,[7],0.168
same,combination Emax,[8],0.333
same,combination Emax,[9],0.403
same,combination Emax,SK-MEL-24 (Melanoma) [10],0.177
same,combination Emax,[11],0.165
same,combination Emax,[12],0.395
same,combination Emax,[13],0.348
same,combination Emax,GCIY (Gastric Carcinoma) [14],0.643
same,combination Emax,[15],0.219
same,combination Emax,[16],0.112
same,combination Emax,[17],0.689
same,combination Emax,[18],0.153
same,combination Emax,[19],0.951
same,combination Emax,[20],0.359
same,combination Emax,C32 (Melanoma) [21],0.253
same,combination Emax,MG-63 (Osteosarcoma) [22],0.332
same,combination Emax,A375 (Melanoma) [23],0.24
same,Bliss excess,[24],-0.0001
same,Bliss excess,[25],0.0221
same,Bliss excess,[26],-0.0086
same,Bliss excess,[27],0.0077
same,Bliss excess,[28],0.0197
same,Bliss excess,NCI-H2452 (Mesothelioma) [29],-0.0697
same,Bliss excess,[30],-0.0469
same,Bliss excess,[31],0.0073
same,Bliss excess,[32],0.0718
same,Bliss excess,SK-MEL-24 (Melanoma) [33],-0.0365
same,Bliss excess,[34],-0.041
same,Bliss excess,[35],0.0031
same,Bliss excess,[36],0.061
same,Bliss excess,GCIY (Gastric Carcinoma) [37],0.0025
same,Bliss excess,[38],-0.049
same,Bliss excess,[39],-0.0603
same,Bliss excess,[40],0.0258
same,Bliss excess,[41],-0.0436
same,Bliss excess,[42],-0.043
same,Bliss excess,[43],-0.0497
same,Bliss excess,C32 (Melanoma) [44],-0.0529
same,Bliss excess,MG-63 (Osteosarcoma) [45],-0.0185
same,Bliss excess,A375 (Melanoma) [46],-0.0091
